This is an account of results in patent US20220177515A1, “METHOD FOR MODIFYING AMINO GROUP IN MOLECULE WITH THE ZOLINIUM AND USE THEREOF” (priority 2019, published 2022).

SMILES strings stand for the structures. Starred links: 1 amine or outer side, 2 acyl side, 3 side chain; linkers in the order of their positions; H or OH if unused. Non-standard residues stand in square brackets, D forms with d. Residues, ends and D or L forms follow the SMILES beside them. X1 = O=C([C@H](Cc1ccc(O)cc1)N(c1ccc2ccccc2n1)[*:1])[*:2]

In series [1] the test system is Hepatocarcinoma BEL-7402 cells. Nature of the series: Cell proliferation inhibition assay (SRB method), BEL-7402. It is filed as cell-based. To be noted: for IC50: BEL-7402, 72 hours, SRB. The protocol:
(§1) Hepatocarcinoma BEL-7402 and SMMC-7721 cells were purchased from American Standard Bacterial Bank. All cell lines were stored in a cell culture medium containing 10% fetal bovine serum in a humid environment at 37° C. and 5% CO2. The two kinds of hepatocarcinoma cells were seeded in 96-well plates overnight. The assay were performed using a final highest concentration of 100 μM, 10-fold dilution, 6 gradients and 3 duplicates, and the cells were treated for 72 hours and three independent repeated experiments were carried out. The antiproliferative activity of the compound was determined by Sulforhodamine B (SRB) method. Then the absorbance OD value at a wavelength of 510 nm was measured on a Synergy H4 Hybrid reader (BioTek, Winooski, Vt., USA) by using Gen5.0 software (BioTek). The IC50 value was calculated using the software Prism 5 (GraphPad Software, Inc).

Series [2] has as its system Hepatocarcinoma SMMC-7721 cells. Nature of the series: Cell proliferation inhibition assay (SRB method), SMMC-7721. It is filed as cell-based. The following applies: for IC50: SMMC-7721, 72 hours, SRB. The procedure:
as §1
In general terms: In SRB staining, fixed cells bind dye roughly in proportion to their protein.

Series [3] is classed as in vitro ADME. To be noted: 1 mg/ml in pig liver slurry, 0.25-3 hour, FIG. 3. The procedure: 5 g of a fresh pig liver from which adhering fat and connective tissue were removed, was washed with a cold saline, absorbed water on its surface with a filter paper and weighed. The liver was cut into pieces with a scissors, added with an appropriate amount of a PBS buffer, and homogenized with a homogenizer at a frequency of 30/s for 4 minutes to prepare 20 ml of a slurry. The compound 2-40 to be tested (at a final concentration of 1 mg/ml with a co-solvent (1% DMSO)) was added into the 20 ml pig liver slurry, stirred thoroughly and left stand. 1 ml of samples were withdrawn twice at six time points: 0.25 hour, 0.5 hour, 1 hour, 1.5 hour, 2 hour and 3 hour, respectively, and added with methanol (500 μl) to stop the reaction. After centrifugation (1000 rpm, 6 minutes), the supernatant was separated and extracted twice with 750 μl of water-saturated n-butanol. The extracted samples were then analyzed by HPLC. The HPLC analysis was performed on an Agilent Zorbax SB-C18 column (5 μm, 4.6×250 mm) with a flow rate of […] at 25° C. The gradient condition used was from 50% A (MeOH) and 50% B (H2O+0.2% CH3COOH) to 95% A and 5% B in 16 minutes. The absorbance values at 210, 254 and 280 nm were collected using a UV-DAD detector.

The target in series [4] is μ-opioid receptor (MOR) (Homo sapiens, UniProt P35372). Nature of the series: [35S]GTPγS binding assay, MOR agonist activity. It is filed as biochemical. The following applies: for Emax: [35S]GTPγS binding rate. The protocol:
Protein concentration was detected using BCA protein concentration assay kit: 10 μl of protein standard was prepared into a final concentration of 0.5 mg/ml. 0, 1, 2, 4, 8, 12, 16, or 20 μl of BSA standard protein was taken and added together with the sample to be tested to a 96-well plate, and supplemented to 20 μl with the solution for diluting the standard. 200 μl of BCA working solution was added to each well and placed at 37° C. for 30 min. The absorbance at A562 wavelength was measured with a microplate reader. The protein concentration was calculated based on the standard curve.
The prepared membrane receptor was diluted to the required concentration with the reaction buffer (R.B), and the samples were added as shown in Table 2 (unit: μl).
The reaction tube was incubated in a 27° C. water bath for 1 hour, and the mixture was filtered through a glass fiber membrane under reduced pressure and liquid scintillation counting was performed. The following equation was used to perform calculation:
[^35S] GTPγS binding rate=100×(cpmsample−cpmnon-specific)/(cpmbasal−cpmnon-specific)
On the technique in general: GTPγS resists hydrolysis and so accumulates on activated G proteins.

Series [5] deals with tankyrase (TNKS). The following applies: read-out: IC50 (TNKS inhibitor); cited from earlier work.

Sequence of μ-opioid receptor (MOR) (P35372 whole entry): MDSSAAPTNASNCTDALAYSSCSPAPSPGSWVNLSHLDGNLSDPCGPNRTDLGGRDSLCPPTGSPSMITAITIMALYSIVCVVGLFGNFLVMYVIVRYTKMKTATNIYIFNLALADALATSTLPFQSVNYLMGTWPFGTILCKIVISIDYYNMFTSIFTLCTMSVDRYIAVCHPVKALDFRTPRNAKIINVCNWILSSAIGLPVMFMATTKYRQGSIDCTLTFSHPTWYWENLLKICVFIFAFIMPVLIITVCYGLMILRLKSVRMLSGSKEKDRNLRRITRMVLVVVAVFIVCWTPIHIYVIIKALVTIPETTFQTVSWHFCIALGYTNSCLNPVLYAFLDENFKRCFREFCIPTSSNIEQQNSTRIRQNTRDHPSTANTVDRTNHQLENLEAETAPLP

By IC50 is commonly meant the point on the concentration scale where inhibition reaches its midpoint. Take `CC(C)C[C@H](NC(=O)[C@H](CO)NC(=O)[C@@H](N)Cc1ccc(O)cc1)C(=O)O` [YSL, Tyroserleutide, reference compound] (H-Tyr-Ser-Leu-OH; N-terminus and C-terminus assumed): the 50% inhibitory concentration (IC50) in series [1] and in series [2] was > 100 µM in each case.
With `C=C(/C=C\C(=C)NC(=O)[C@H](CCCNC(N)=O)NC(=O)[C@@H](Nc1cc(C)c2ccc(-c3ccccc3F)cc2n1)C(C)C)CO` [Compound 2-40], the “metabolic stability in liver tissue” value in series [3] is reported as “good metabolic stability”.
`COC(=O)[C@H](CC(C)C)NC(=O)[C@H](CO)NC(=O)[C@H](Cc1ccc(O)cc1)Nc1ccc2ccccc2n1` [Compound 2-39]: the “cytotoxicity compared with unmodified drugs” value in series [1] (BEL-7402) and in series [2] (SMMC-7721) was “better cytotoxicities than the unmodified drugs” in each case. Also, the half-inhibitory concentration (IC50) in series [1] came out at 52.6 ± 2.47 µM; in series [2] it was 63.3 ± 6.35 µM.
In general, Emax refers to the greatest response seen or fitted, relative to the assay's reference. In turn, `C[C@@H](NC(=O)[C@@H](N)Cc1ccc(O)cc1)C(=O)N[C@@H](Cc1ccccc1)C(=O)NCC(=O)N[C@@H](Cc1ccc(O)cc1)C(=O)N1CCC[C@H]1C(=O)N[C@@H](CO)C(N)=O` [derorphin, reference compound] yielded an Emax in series [4] (mean ± sem) of 219 ± 7.1%.
In general, EC50 refers to the midpoint of the concentration-response curve. A lower EC50 goes with an effect from little substance. Regarding `C[C@H](NC(=O)[C@H](Cc1ccc(O)cc1)Nc1ccc2ccccc2n1)C(=O)N[C@H](Cc1ccccc1)C(=O)NCC(=O)N[C@H](Cc1ccc(O)cc1)C(=O)N1CCC[C@H]1C(=O)N[C@@H](CO)C(N)=O` [Compound 2-38] (H-[X1]A[dF]G[dY]PS-NH2), in series [4], the “MOR agonist activity compared with derorphin” value was “activity comparable to that of derorphin”. For the same compound, in series [4] (mean ± sem), the EC50 was 0.224 ± 0.0251 µM and the maximum response (Emax) amounted to 203 ± 5.1%.
For the compound `Cc1cc(=O)[nH]c2cc(-c3ccccc3F)ccc12` [7-(2-fluorophenyl)-4-methylquinoline-2(1H)-one], the IC50 in series [5] is 0.052 µM.
Consider `COC(=O)[C@H](CC(C)C)NC(=O)[C@H](CO)NC(=O)[C@@H](N)Cc1ccc(O)cc1` [YSL-M, tyroserleucide methyl ester, reference compound] (H-Tyr-Ser-Leu-OMe; N-terminus assumed), for which the half-maximal inhibitory concentration (IC50) in series [1] and in series [2] was > 100 µM in each case.
